In ChEMBL document CHEMBL5321293, “Discovery of ERD-3111 as a Potent and Orally Efficacious Estrogen Receptor PROTAC Degrader with Strong Antitumor Activity” (J Med Chem, 2023):

Assays:
[1] = Plasma protein binding in monkey; assay type: ADME, cell-free, Macaca mulatta; settings: rhesus monkey, read-out: PPB (converted)
[2] = Clearance in Sprague-Dawley rat at 1 mg/kg, iv and measured upto 24 hrs by LC-MS/MS analysis; settings: in vivo
[3] = AUC in Sprague-Dawley rat at 3 mg/kg, po and measured upto 24 hrs by LC-MS/MS analysis; assay type: ADME, organism-based; design: dose 3 mg/kg, time < 24 hrs, route po; settings: Sprague-Dawley, in vivo
[4] = Plasma protein binding in dog; assay type: ADME, cell-free, Canis lupus familiaris; settings: read-out: PPB (converted)
in vivo [5] = settings: Sprague-Dawley, rat, po, 3 mg/kg
[6] = Plasma protein binding in rat; assay type: ADME, cell-free; settings: read-out: PPB (converted)
[7] = Plasma protein binding in human; assay type: ADME, cell-free; settings: read-out: PPB (converted)
[8] = Plasma protein binding in mouse; assay type: ADME, cell-free; settings: read-out: PPB (converted)
[9] = Volume of distribution at steady state in Sprague-Dawley rat at 1 mg/kg, iv and measured upto 24 hrs by LC-MS/MS analysis; settings: in vivo
[10] = Half life in Sprague-Dawley rat at 3 mg/kg, po and measured upto 24 hrs by LC-MS/MS analysis; settings: in vivo
in vivo [11] = settings: Sprague-Dawley, rat, po, 3 mg/kg; remark: listed apart in the source
[12] = target: T1, Protein cereblon/Estrogen receptor (Homo sapiens, UniProt P03372+Q96SW2); experiment: Protac activity at human ERalpha in human MCF7 cells assessed as induction of ERalpha degradation by measuring maximum efficacy at 1 uM incubated for 12 hrs by ICW blot assay relative to control; assay type: cell-based
Target sequence in this assay (P03372 whole entry, looked up): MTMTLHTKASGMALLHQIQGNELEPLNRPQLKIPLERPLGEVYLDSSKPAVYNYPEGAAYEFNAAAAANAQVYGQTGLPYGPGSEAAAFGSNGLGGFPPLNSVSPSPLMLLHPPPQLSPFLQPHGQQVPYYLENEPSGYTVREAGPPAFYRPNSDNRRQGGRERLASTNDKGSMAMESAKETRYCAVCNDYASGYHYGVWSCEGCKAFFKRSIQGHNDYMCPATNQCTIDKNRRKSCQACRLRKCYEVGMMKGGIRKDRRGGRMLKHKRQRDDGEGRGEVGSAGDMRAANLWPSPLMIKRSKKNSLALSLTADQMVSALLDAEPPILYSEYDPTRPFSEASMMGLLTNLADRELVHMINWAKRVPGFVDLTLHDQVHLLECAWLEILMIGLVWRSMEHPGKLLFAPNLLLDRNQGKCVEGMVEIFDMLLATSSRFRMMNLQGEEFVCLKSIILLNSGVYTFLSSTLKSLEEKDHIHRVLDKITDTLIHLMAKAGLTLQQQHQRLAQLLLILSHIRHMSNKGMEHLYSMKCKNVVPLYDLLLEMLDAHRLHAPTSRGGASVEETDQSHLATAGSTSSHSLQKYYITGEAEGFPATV
Target sequence in this assay (Q96SW2 whole entry, looked up): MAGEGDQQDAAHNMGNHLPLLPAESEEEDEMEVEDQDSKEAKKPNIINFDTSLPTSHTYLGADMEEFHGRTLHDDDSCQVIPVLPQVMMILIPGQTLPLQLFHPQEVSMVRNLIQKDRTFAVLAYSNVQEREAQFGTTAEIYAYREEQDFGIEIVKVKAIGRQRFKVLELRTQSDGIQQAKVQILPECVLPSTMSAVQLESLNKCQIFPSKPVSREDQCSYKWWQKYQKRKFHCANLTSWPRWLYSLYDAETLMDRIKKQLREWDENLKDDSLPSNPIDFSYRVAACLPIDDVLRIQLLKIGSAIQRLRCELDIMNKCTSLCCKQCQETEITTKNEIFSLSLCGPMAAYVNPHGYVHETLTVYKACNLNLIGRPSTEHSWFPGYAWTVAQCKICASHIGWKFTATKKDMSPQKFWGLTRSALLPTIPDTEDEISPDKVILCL

[13] = target: T1, Protein cereblon/Estrogen receptor; experiment: Protac activity at human ERalpha in human MCF7 cells assessed as protein degradation incubated for 12 hrs by ICW blot assay; assay type: cell-based
Target sequence in this assay (P03372 whole entry): as the sequence (P03372 whole entry, looked up) above
Target sequence in this assay (Q96SW2 whole entry): as the sequence (Q96SW2 whole entry, looked up) above

SMILES	Emax [12] [%]	DC50 [13] [nM]	other results
CN1Cc2cc3c(cc2C1)C(=O)N(C1CCC(=O)NC1=O)C3=O (centres undefined)			fraction unbound [1]: 0.856; clearance at 24 h [2]: 29.2 mL/min/kg; AUC at 24 h [3]: 1150 ng·h/mL; fraction unbound [4]: 0.83; bioavailability at 24 h (in vivo [5]): 70%; fraction unbound [6]: 0.635; fraction unbound [7]: 0.875; fraction unbound [8]: 0.737; Vd at 24 h [9]: 5 L/kg; half-life at 24 h [10]: 108 min; Cmax at 24 h (in vivo [11]): 228 ng/mL
O=C1CCC(N2C(=O)c3cc4c(cc3C2=O)CN(CC2CCN(c3ccc([C@@H]5c6ccc(O)cc6CC[C@@H]5c5ccccc5)cc3)CC2)C4)C(=O)N1 (some centres undefined)	65	415	
COc1cc(N2CCC3(CCN(C(=O)CN4Cc5cc6c(cc5C4)C(=O)N(C4CCC(=O)NC4=O)C6=O)CC3)CC2)ccc1[C@@H]1c2ccc3[nH]ncc3c2C[C@@H](C)N1CC(F)F (some centres undefined)	82	1.4	
O=C1CCC(N2C(=O)c3cc4c(cc3C2=O)CN(CCCC2CCN(c3ccc([C@@H]5c6ccc(O)cc6CC[C@@H]5c5ccccc5)cc3)CC2)C4)C(=O)N1 (some centres undefined)	79	171	
C[C@@H]1Cc2c(ccc3[nH]ncc23)[C@@H](c2ccc(N3CCC4(CCN(C(=O)CN5Cc6cc7c(cc6C5)C(=O)N(C5CCC(=O)NC5=O)C7=O)CC4)CC3)cn2)N1CC(F)F (some centres undefined)	112	14	
O=C1CCC(N2C(=O)c3cc4c(cc3C2=O)CN(CC(=O)N2CC3(CCN(c5ccc([C@@H]6c7ccc(O)cc7CC[C@@H]6c6ccccc6)cc5)C3)C2)C4)C(=O)N1 (some centres undefined)	63	4	
O=C1CCC(N2C(=O)c3cc4c(cc3C2=O)CN(CCCCCCC2CCN(c3ccc([C@@H]5c6ccc(O)cc6CC[C@@H]5c5ccccc5)cc3)CC2)C4)C(=O)N1 (some centres undefined)	101	129	

Now from value to molecule, other results behind:

Emax [12] [%]	DC50 [13] [nM]	SMILES	other results
87	32	O=C1CCC(N2C(=O)c3cc4c(cc3C2=O)CN(CC2CCN(C(=O)C3CN(c5ccc([C@@H]6c7ccc(O)cc7CC[C@@H]6c6ccccc6)cc5)C3)CC2)C4)C(=O)N1 (some centres undefined)	
75	4.6	O=C1CCC(N2C(=O)c3cc4c(cc3C2=O)CN(CC(=O)N2CCC3(CCN(c5ccc([C@@H]6c7ccc(O)cc7CC[C@@H]6c6ccccc6)cc5)CC3)C2)C4)C(=O)N1 (some centres undefined)	
23	> 1000	O=C1CCC(N2C(=O)c3cc4c(cc3C2=O)CN(CC(=O)N2CCC3(C2)CN(c2ccc([C@@H]5c6ccc(O)cc6CC[C@@H]5c5ccccc5)cc2)C3)C4)C(=O)N1 (some centres undefined)	
